For assay [1], the target named is T1, PGAM5 (Homo sapiens, UniProt Q96HS1).
T1 sequence (Q96HS1 22-289): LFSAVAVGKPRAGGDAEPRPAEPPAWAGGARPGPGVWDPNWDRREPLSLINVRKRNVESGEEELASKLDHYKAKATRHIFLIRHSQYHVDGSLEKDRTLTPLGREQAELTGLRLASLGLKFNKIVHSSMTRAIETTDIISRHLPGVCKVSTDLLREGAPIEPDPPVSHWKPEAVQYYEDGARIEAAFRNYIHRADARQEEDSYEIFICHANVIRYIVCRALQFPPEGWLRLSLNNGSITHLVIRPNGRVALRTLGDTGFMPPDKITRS
In words: SPR. Type of assay: binding.

The target of assay [2] is T2, PGAM5 (Mus musculus, UniProt Q8BX10).
T2 sequence (Q8BX10 1-288): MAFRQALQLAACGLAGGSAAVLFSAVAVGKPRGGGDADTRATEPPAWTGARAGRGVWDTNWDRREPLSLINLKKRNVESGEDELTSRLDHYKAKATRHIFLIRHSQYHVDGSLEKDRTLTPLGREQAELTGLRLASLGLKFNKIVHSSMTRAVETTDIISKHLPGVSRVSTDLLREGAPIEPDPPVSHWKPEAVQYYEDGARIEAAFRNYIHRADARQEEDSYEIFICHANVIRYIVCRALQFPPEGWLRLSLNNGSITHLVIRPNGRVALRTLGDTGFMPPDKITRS
In words: DARTS, CETSA and SIP target engagement in BMDMs. The assay is classed as cell-based.

Assay [3] concerns the target T3, PGAM5 (Homo sapiens, UniProt Q96HS1, C168A).
T3 sequence (Q96HS1 22-289 C168A): T1 sequence (Q96HS1 22-289) with C147A
As to the kind of experiment: in vitro PGAM5 phosphatase assay. The assay is classed as biochemical.

Assay [4] has as its target T4, PGAM5 (Homo sapiens, UniProt Q96HS1, C229A).
T4 sequence (Q96HS1 22-289 C229A): T1 sequence (Q96HS1 22-289) with C208A
In words: in vitro PGAM5 phosphatase assay. The assay is classed as biochemical.

The target in assay [5] is T1, PGAM5. As to the kind of experiment: SPR. The assay is classed as binding. The source holds these as a separate data set.

The values that follow come from publication PMC11873611 (Acta Pharmaceutica Sinica. B, 2024).

Residue numbers refer to the chain shown, from its start.

For the compound `O=C1OC[C@H]2OC(O)[C@H](O)[C@@H](O)[C@@H]2OC(=O)c2cc(O)c(O)c(O)c2-c2c(O)c(O)c3oc(=O)c4c(c(O)c(O)c5oc(=O)c2c3c54)-c2c1cc(O)c(O)c2O` (mixture of isomers) [punicalin], at PGAM5 [1], the “SPR (Fig. S9L and S9M)” value was “there was a similar direct interaction between punicalin and ΔN21 PGAM5 or ΔN90 PGAM5 compared with punicalagin”.

`O=C1O[C@H]2[C@@H]3OC(=O)c4cc(O)c(O)c(O)c4-c4c(O)c(O)c5oc(=O)c6c(c(O)c(O)c7oc(=O)c4c5c76)-c4c(cc(O)c(O)c4O)C(=O)OC[C@H]3OC(O)[C@@H]2OC(=O)c2cc(O)c(O)c(O)c2-c2c1cc(O)c(O)c2O` (mixture of isomers) [punicalagin]: at PGAM5 [2], the “DARTS, CETSA and SIP target engagement in BMDMs” value is on record as “punicalagin significantly restrained the proteolysis of PGAM5 by pronase, further supporting that punicalagin could bind to PGAM5 in BMDMs”. Further, the “in vitro PGAM5 phosphatase assay (phosphopeptide, BIOMOL Green)” value on PGAM5 [3] and at PGAM5 [4] was “punicalagin still inhibited the phosphatase activity of PGAM5 C168A or C229A protein mutant” throughout. Further, the Kd – broadly, the concentration at which binding is half-saturated – on PGAM5 [5] is roughly 0.3 nM.
